Assays:
PFM males = assay: Field trapping with delta traps, peach orchard; format: in vivo, Grapholita funebrana
Protocol: To determine the inhibitory effects on OFM male adults and the impact on the trapping effects of PFM male adults, varying amounts of Z8-14:Ac (0, 5, 10, 25, 50, 75, 100, 125, 150 μg) or Z10-14:Ac (0, 25, 50, 100, 150, 250, 350, 450, and 550 μg) were added to rubber septa loaded with a constant dosage of the main pheromone (500 μg of Z8-12:Ac and 20 μg of E8-12:Ac) of the PFM. Trapping experiments of Z8-14:Ac were carried out in peach and pear orchards in Yan’an and Xinjiang (China), respectively. Trapping tests of Z10-14:Ac were performed in pear orchards in Xinjiang (China). Each orchard had nine plots, with three plots in one field. Each plot consisted of a linear arrangement of traps loaded with a constant dosage of the main pheromones and different percentages of the secondary pheromone Z8-14:Ac or Z10-14:Ac of the PFM. Plots in the same field were placed 30 m apart, and fields were ≥1 km apart. The traps were hung 1.4 m from the ground on a suspension bracket between two rows of peach or pear trees from 10 June to 25 July 2021 in Xinjiang and from 15 June to 30 July 2021 in Yan’an. The positions of the traps within the plot were randomly arranged. Every 5 days, counts were taken, and the traps were rotated to the adjacent position to avoid any potential position effects. The septa loaded with sex pheromone components were replaced with new ones after every 15 days of suspension. The data were analyzed using a one-way ANOVA, and the differences in the average trapping of OFM and PFM males using sex attractants containing different amounts of Z8-14:Ac or Z10-14:Ac were further analyzed using Tukey’s HSD test, both of which were performed using SPSS 23.0.

OFM male antennae = assay: Electroantennogram (EAG) analysis; design: species or system Grapholita molesta
Protocol: (§1) Electroantennogram (EAG) equipment (Syntech, Hilversum, The Netherlands) was used to record the antennal responses of the OFM and PFM adults to Z8-12:Ac, E8-12:Ac, Z8-12:OH, Z8-14:Ac, and Z10-14:Ac. These sex pheromone compounds were diluted with liquid paraffin to prepare a stimulus solution of 100 μg/μL, which was subsequently diluted to 10 and 1 μg/μL. Antenna from 3-day-old OFM and 2- to 4-day-old PFM virgin males were excised at its base, with the distal part of the terminal segment being removed. Then, the treated antenna was attached to electrode holders with SpectraR360 conducting gel. A stimulus controller (model CS-55, Syntegon Technology, Waiblingen, Germany) continuously supplied a humidified air stream at a rate of 500 mL/min. Then, 20 μL of each stimulus solution was adsorbed onto a twice-folded filter paper strip (0.5 cm × 4 cm) placed on the wide section of a l mL pipette tip, which served as an odorant cartridge. Vapor stimuli were delivered by an air compressor into the constant air stream described above, flowing in a copper delivery tube (i.d. 8 mm) with the outlet positioned approximately 1 cm from the antenna. The EAG amplitude tests of the OFM and PFM males’ responses to sex pheromones started with solvent control stimuli (20 μL of liquid paraffin), followed by stimulation with 20, 200, and 2000 μg doses (20 μL of 1.0, 10.0, and 100.0 μg/μL of liquid paraffin solutions, respectively) of stimulus in sequence. The solvent control was performed at the end of the run. To control for variations among antennae, each sample was tested on 10 antennae of different males. The EAG signals and data were analyzed using EAG 2000 software (Syntech, Hilversum, The Netherlands). The corrected EAG amplitude value = absolute EAG amplitude value − (EAGck1 + EAGck2)/2, where EAGck1 and EAGck2 represent the absolute EAG amplitude values of the solvent control before and after measuring each stimulus, respectively. The relative EAG response of the OFM and PFM males to the same doses of sex pheromones were subjected to an analysis of independent sample t-test (p = 0.05) using SPSS version 23.0 (IBM).

PFM male antennae = assay: Electroantennogram (EAG) analysis; design: species or system Grapholita funebrana; conditions: 20, 200 and 2000 μg doses
Protocol: as §1

Compound: CCCCC/C=C\CCCCCCCOC(C)=O [Z8-14:Ac, (Z)-8-tetradecenyl acetate]
- Total PFM Males/Trap (PFM males; Z8-12:Ac/E8-12:Ac/Z8-14:Ac 500/20/5 μg (100:4:1)): 387.73 ± 18.31 a Males/Trap
- Total PFM Males/Trap (PFM males; Z8-12:Ac/E8-12:Ac/Z8-14:Ac 500/20/10 μg (100:4:2)): 287.22 ± 7.96 a Males/Trap
- Total PFM Males/Trap (PFM males; Z8-12:Ac/E8-12:Ac/Z8-14:Ac 500/20/25 μg (100:4:5)): 314.53 ± 26.14 a Males/Trap
- Total PFM Males/Trap (PFM males; Z8-12:Ac/E8-12:Ac/Z8-14:Ac 500/20/50 μg (100:4:10)): 331.58 ± 17.46 a Males/Trap
- Total PFM Males/Trap (PFM males; Z8-12:Ac/E8-12:Ac/Z8-14:Ac 500/20/75 μg (100:4:15)): 297.81 ± 4.75 a Males/Trap
- Total PFM Males/Trap (PFM males; Z8-12:Ac/E8-12:Ac/Z8-14:Ac 500/20/100 μg (100:4:20)): 285.62 ± 6.55 a Males/Trap
- Total PFM Males/Trap (PFM males; Z8-12:Ac/E8-12:Ac/Z8-14:Ac 500/20/125 μg (100:4:25)): 352.89 ± 32.42 a Males/Trap
- Total PFM Males/Trap (PFM males; Z8-12:Ac/E8-12:Ac/Z8-14:Ac 500/20/150 μg (100:4:30)): 348.30 ± 22.77 a Males/Trap
- effect on the number of PFM males (PFM males; adding 1–30% of Z8-14:Ac to the PFM sex attractants): neither significantly increased nor inhibited
- EAG values of OFM males compared with PFM males (OFM male antennae; 20, 200 and 2000 μg): significantly higher than those of the PFM males
- EAG response of OFM males (OFM male antennae; 20, 200 and 2000 μg doses): moderate EAG response
- EAG response of PFM males (PFM male antennae): moderate EAG response
